Test results published in patent US9580439B2, “Inhibitors of focal adhesion kinase” (The Scripps Research Institute, priority 2007, dated 2017).

Target: FAK (411-686, activated by Src and repurified) (Homo sapiens, UniProt Q05397)
Test: FAK Biochemical Assay (cell-free, HTRF)
Conditions: 10 μM ATP, read-out: 50% inhibitory concentrations (IC50) against focal adhesion kinase in the cell-free assay
Protocol: All experiments were performed in Greiner FIA black 384-well low volume plates.
A 5 μl mixture of a 200 nM Ulight-poly GT substrate (Perkin Elmer) and 10 μM ATP in Kinase buffer (50 mM Hepes pH 7.3, 10 mM MgCl2, 1 mM EGTA, 0.01% Tween-20, 2 mM dithriothreitol) was dispensed into the wells. […] of 90% DMSO/10% water containing the compounds to be tested was added to the wells. Kinase reaction was started by addition of 5 μl of 1 nM FAK (411-686, activated by Src and repurified) in Kinase buffer. After 50 min at RT the reaction was stopped with 5 μl of 40 mM EDTA in detection buffer (Perkin Elmer, Lance detection buffer) followed by a 5 μl addition of 8 nM LANCE Ei-W1024 anti-phosphotyrosine (PY20) antibody in detection buffer. After 1 h incubation at RT the plate was read on the Viewlux in HTRF mode.

Chain of FAK (411-686, activated by Src and repurified) (Q05397 411-686, species assumed): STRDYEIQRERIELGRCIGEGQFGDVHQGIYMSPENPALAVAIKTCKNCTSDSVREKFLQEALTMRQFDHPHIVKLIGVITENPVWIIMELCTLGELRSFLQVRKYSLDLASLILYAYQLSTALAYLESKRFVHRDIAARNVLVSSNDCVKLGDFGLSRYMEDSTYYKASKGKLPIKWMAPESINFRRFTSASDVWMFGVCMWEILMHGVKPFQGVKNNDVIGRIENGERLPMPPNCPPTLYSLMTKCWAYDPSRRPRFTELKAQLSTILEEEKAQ

IC50 [µM] | Compound
> 10 | CN1Cc2cccc(Nc3cc(Nc4cccc5c4C(=O)N(C)C5)c(C(F)(F)F)cn3)c2C1=O [Compound 3, 7,7′-(5-(trifluoromethyl)pyridine-2,4-diyl)bis(azanediyl)bis(2-methylisoindolin-1-one)]
> 10 | CNS(=O)(=O)c1ccccc1Nc1cc(Nc2ccccc2S(=O)(=O)NC)c(C(F)(F)F)cn1 [Compound 5]
